Source: US20140315322A1 (FUSO PHARMACEUTICAL INDUSTRIES, LTD., priority 2011, published 2014)
Where “and” joins values, the source holds several entries; their conditions need not be identical. Equal values may be shown once.

Columns and labels:
clinical [1] = settings: blood plasma of individual dialysis patients treated with acetic acid-containing dialysis fluid, dialysis time 4 hr
Procedure: From ΔE of samples for calibration curve (W2 to 8, n=1), calibration curve (Y=aX+b, Y: ΔE, X: concentration μmol/L) was prepared by using least-squares method. No weighting of calibration curve was carried out. The range of quantitative analysis was from 20 to 2000 μmol/L.
(§1) The measured value of each sample was calculated by applying the peak area ratio or ΔE to the calibration curve, and rounding off to one decimal place.

clinical [2] = settings: blood plasma of individual dialysis patients treated with acetic acid-containing dialysis fluid, dialysis time 4 hr; remark: listed apart in the source
Procedure: Into a polypropylene tube, each sample (400 μL, samples for calibration curve and human blood plasma) was taken, and the internal standard solution IS-W1 (100 μL) was added thereto. Further, 10% sulfosalicylic acid (special grade, manufactured by Wako Pure Chemical Industries) solution (100 μL) was added thereto and stirred. To this solution was added MTBE (400 μL, Lot No. EPF0734, manufactured by Wako Pure Chemical Industries) and stirred for 1 minute. After that, the mixture was subjected to centrifugation (RX-200, manufactured by TOMY SEIKO) at 10000 rpm at 4° C. for 5 minutes, and the supernatant (200 μL) was taken into another glass vial. Then, to the supernatant was added N-methyl-N-(tert-butyldimethylsilyl)trifluoroacetamide (MTBSTFA) (5 to 10 μL, Lot No. BCBC7878, manufactured by ALDRICH) and heated with Block Heater (DTU-2B, manufactured by TAITEC) at 60° C. for 1 to 2 hours. After that, the resultant solution was measured by using GC/MS (JMS-AMII150, manufactured by JEOL) in the following conditions.
Samples were pretreated in the same method as that of “4. Pretreatment method and measurement method for samples” of Example 1, and then measured by GC/MS (5975C GCMSD, manufactured by Agilent) in the following conditions. […]
as §1

CC(=O)O [acetic acid]
Measured value, Enzyme method (clinical [1]): 1620.3 µmol/L and 1653.5 µmol/L and 1896.4 µmol/L | concentration at 4 h (clinical [1]; human, plasma, other: dialysis with a dialysis fluid containing acetic acid, Measured value, Enzyme method): 1680 µM | Measured value, GC/MS method (clinical [2]): 1745.5 µmol/L and 1854.9 µmol/L and 1991.5 µmol/L | concentration at 4 h (clinical [2]; human, plasma, other: dialysis with a dialysis fluid containing acetic acid, Measured value, GC/MS method): 1790 µM
